ChEMBL document CHEMBL4196219, “Rare Thioglycosides from the Roots of Wasabia japonica” (J Nat Prod, 2018)

Tested on: BV-2
Experiment: Antiinflammatory activity in mouse BV2 cells assessed as inhibition of LPS-induced nitric oxide production after 24 hrs by Griess reagent based assay
Assay type: functional, cell-based
Details: BV-2, 24 h

IC50: 41.2 µM
SMILES: C[C@@H]1CSS[C@@H]2O[C@H](CO)[C@@H](O)[C@H](O)[C@H]2OC1=O
